Results: US20110288052A1, “NOVEL COMPOUNDS, PHARMACEUTICAL COMPOSITIONS CONTAINING SAME, AND METHODS OF USE FOR SAME” (priority 2008, published 2011)
≈ marks a conversion by molar mass, not a printed value. Where two headings read alike, the source gives them in different places.

Tests used:
[1] = system: HCT116 cells; experiment: XTT cytotoxicity assay, HCT116 (H); type: cell-based; conditions: Homo sapiens, HCT-116
Description: (§1) XTT Cytotoxicity Assay The XTT assay is a non-radioactive alternative for the [^51Cr] release cytotoxicity assay. XTT is a tetrazolium salt that is reduced to a formazan dye only by metabolically active, viable cells. The reduction of XTT is measured spectrophotometrically as OD490-OD650. To measure the cytotoxicity of specific compounds against cancer cells, 9×10^3 MCF-7 human breast cancer cells (shown in the tables as “(M)”), obtained from the American Type Culture Collection are plated per well in 96 well plates in DMEM medium with 10% fetal bovine serum, insulin, penicillin, and streptomycin. Following overnight culture at 37° C. and 5% CO2, the compounds to be tested, dissolved in DMSO, are added to the wells in 1 μl volume at the following concentrations: 80, 40, 20, 10, 5, 2.5, 1.25, and 0.625 μg/ml in triplicate. Additional concentrations are tested if required. 1 μl of DMSO is added to triplicate wells are the vehicle control. C75 is run at 40, 20, […], and 5 μg/ml in triplicate as positive controls. After 72 hours of incubation, cells are incubated for 4 hours with the XTT reagent as per manufacturer's instructions (Cell Proliferation Kit II (XTT) Roche). Plates are read at OD490 and OD650 on a Molecular Devices SpectraMax Plus Spectrophotometer. Three wells containing the XTT reagent without cells serve as the plate blank. XTT data are reported as OD490-OD650. Averages and standard error of the mean are computed using SOFTmax Pro software (Molecular Dynamics). The IC50 for the compounds is defined as the concentration of drug leading to a 50% reduction in OD490-OD650 compared to controls. The OD490-OD650 are computed by the SOFTmax PRO software (Molecular Devices) for each compound concentration. IC50 is calculated by linear regression, plotting the FAS activity as percent of control versus drug concentrations. Linear regression, best-fit line, r^2, and 95% confidence intervals are determined using Prism Version 3.0 (Graph Pad Software). The test was also run against OVCAR3 cells (“OV”), and HCT116 cells (“H”).

[2] = Solubility problem noted during the assays; type: physicochemical; conditions: read-out: Sol Prob (solubility problem at concentration)
[3] = system: MCF-7 human breast cancer cells; experiment: XTT cytotoxicity assay, MCF-7 (M); type: cell-based; conditions: MCF7, MCF-7, 72 hours
Description: XTT Cytotoxicity Assay The XTT assay is a non-radioactive alternative for the [^51Cr] release cytotoxicity assay. XTT is a tetrazolium salt that is reduced to a formazan dye only by metabolically active, viable cells. The reduction of XTT is measured spectrophotometrically as OD490-OD650. To measure the cytotoxicity of specific compounds against cancer cells, 9×10^3 MCF-7 human breast cancer cells (shown in the tables as “(M)”), obtained from the American Type Culture Collection are plated per well in 96 well plates in DMEM medium with 10% fetal bovine serum, insulin, penicillin, and streptomycin. Following overnight culture at 37° C. and 5% CO2, the compounds to be tested, dissolved in DMSO, are added to the wells in 1 μl volume at the following concentrations: 80, 40, 20, 10, 5, 2.5, 1.25, and 0.625 μg/ml in triplicate. Additional concentrations are tested if required. 1 μl of DMSO is added to triplicate wells are the vehicle control. C75 is run at 40, 20, […], and 5 μg/ml in triplicate as positive controls. After 72 hours of incubation, cells are incubated for 4 hours with the XTT reagent as per manufacturer's instructions (Cell Proliferation Kit II (XTT) Roche). Plates are read at OD490 and OD650 on a Molecular Devices SpectraMax Plus Spectrophotometer. Three wells containing the XTT reagent without cells serve as the plate blank. XTT data are reported as OD490-OD650. Averages and standard error of the mean are computed using SOFTmax Pro software (Molecular Dynamics). The IC50 for the compounds is defined as the concentration of drug leading to a 50% reduction in OD490-OD650 compared to controls. The OD490-OD650 are computed by the SOFTmax PRO software (Molecular Devices) for each compound concentration. IC50 is calculated by linear regression, plotting the FAS activity as percent of control versus drug concentrations. Linear regression, best-fit line, r^2, and 95% confidence intervals are determined using Prism Version 3.0 (Graph Pad Software).

[4] = system: OVCAR3 cells; experiment: XTT cytotoxicity assay, OVCAR3 (OV); type: cell-based; conditions: Homo sapiens
Description: as §1

[5] = system: MCF-7 human breast cancer cells (fatty acid synthesis pathway activity); experiment: [14C]acetate incorporation into total lipids; type: cell-based; conditions: MCF7, [14C]acetate incorporation into lipids
Description: Measurement of [^14C]acetate Incorporation into Total Lipids and Determination of IC50 of Compounds. This assay measures the incorporation of [^14C]acetate into total lipids and is a measure of fatty acid synthesis pathway activity in vitro. It is utilized to measure inhibition of fatty acid synthesis in vitro.
MCF-7 human breast cancer cells cultured as above, are plated at 5×10^4 cells per well in 24-well plates. Following overnight incubation, the compounds to be tested, solubilized in DMSO, are added at 5, 10, and 20 μg/ml in triplicate, with lower concentrations tested if necessary. DMSO is added to triplicate wells for a vehicle control. C75 is run at 5 and 10 μg/ml in triplicate as positive controls. After 4 hours of incubation, 0.25 μCi of [^14C]acetate (10 μl volume) is added to each well.
After 2 hours of additional incubation, medium is aspirated from the wells and 800 μl of chloroform:methanol (2:1) and 700 μl of 4 mM MgCl2 is added to each well. Contents of each well are transferred to 1.5 Eppendorf tubes, and spun at full-speed for 2 minutes in a high-speed Eppendorf Microcentrifuge 5415D. After removal of the aqueous (upper) layer, an additional 700 μl of chloroform:methanol (2:1) and 500 μl of 4 mM MgCl2 are added to each tube and then centrifuged for 1 minutes as above. The aqueous layer is removed with a Pasteur pipette and discarded. An additional 400 μl of chloroform:methanol (2:1) and 200 μl of 4 mM MgCl2 are added to each tube, then centrifuged and aqueous layer is discarded. The lower (organic) phase is transferred into a scintillation vial and dried at 40° C. under N2 gas. Once dried, 3 ml of scintillant (APB #NBC5104) is added and vials are counted for ^14C. The Beckman Scintillation counter calculates the average cpm values for triplicates.
The IC50 for the compounds is defined as the concentration of drug leading to a 50% reduction in [^14C]acetate incorporation into lipids compared to controls. This is determined by plotting the average cpm for each inhibitor concentration tested, performing linear regression and computing the best-fit line, r^2 values, and 95% confidence intervals. The average cpm values are computed by the Beckman scintillation counter (Model LS6500) for each compound concentration. Computation of linear regression, best-fit line, r^2, and 95% confidence intervals are calculated using Prism Version 3.0 (Graph Pad Software).

[6] = system: MCF-7 human breast cancer cells (fatty acid oxidation pathway activity); experiment: Fatty acid oxidation ([14C]palmitate to acid soluble products); type: cell-based; conditions: for Emax at 0.098 µg/mL: at 0.098 μg/ml
Description: Measurement of Fatty Acid Oxidation and Determination of SC150 of Compounds This assay measures the degradation of [^14C]palmitate into acid soluble products and is a measure of fatty acid oxidation pathway activity in vitro. It is utilized to measure fatty acid oxidation in vitro. MCF-7 human breast cancer cells cultured as above, are plated at 2.5×10^5 cells per well in 24-well plates. Following overnight incubation, the compounds to be tested, solubilized in DMSO, are added at […], 0.39, 1.56, 6.25, 25, and 100 μg/ml in triplicate, with lower concentrations tested if necessary. DMSO is added to triplicate wells for a vehicle control. C75 is run at 5 and 10 μg/ml in triplicate as positive controls. After 1 hour of incubation, medium is removed 100 uM of [^14C] palmitate in cyclodextran and 200 uM carnitine in serum free medium (250 μl volume) is added to each well. After 30 minutes of additional incubation, the reaction is stopped by addition of 2.6N HClO4. Contents of each well are transferred to 1.5 ml Eppendorf tubes and 4N KOH is added. The tubes are incubated for 30 minutes at 60° C. 1 M NaAcetate and 3N H2SO4 is added to each tube and vortexed. The tubes are centrifuged at 1000 rpm for 5 minutes at RT. 250 μl of the supernatant is transferred to a 2 ml eppendorf tube. To each tube is added: 938 μl of chloroform:methanol (1:1), 468 μl chloroform and 281 μl of deionized water. The tubes are vortexed and centrifuged at 1000 rpm for 5 minutes at RT. 750 μl of the upper phase is transferred into a scintillation vial 5 ml of scintillant is added and vials are counted for 1 minute for ^14C. The Beckman Scintillation counter calculates the average cpm values for triplicates. The SC150 for the compounds is defined as the concentration of drug leading to a 150% increase in production of acid soluble products of [^14C] palmitate as compared to untreated controls. This is determined by plotting the average cpm for each inhibitor concentration tested, performing linear regression and computing the best-fit line, r^2 values, and 95% confidence intervals. The average cpm values are computed by the Beckman scintillation counter (Model LS6500) for each compound concentration. Computation of linear regression, best-fit line, r^2, and 95% confidence intervals are calculated using Prism Version 3.0 (Graph Pad Software). If a compound fails to achieve this 150% threshold it is considered negative. The maximum value achieved is also reported (FAO Max).

[7] = system: Enterococcus faecalis (ATCC # 29212); experiment: Broth microdilution antimicrobial assay, E. faecalis; type: cell-based
Description: Antimicrobial Properties A broth microdilution assay is used to assess the antimicrobial activity of the compounds. Compounds are tested at twofold serial dilutions, and the concentration that inhibits visible growth (OD600 at 10% of control) is defined as the MIC. Microorganisms tested include Staphylococcus aureus (ATCC # 29213), Enterococcus faecalis (ATCC # 29212), Pseudomonas aerpginosa (ATCC # 27853), and Escherichia coli (ATCC # 25922). The assay is performed in two growth media, Mueller Hinton Broth and Trypticase Soy Broth.
A blood (Tsoy/5% sheep blood) agar plate is inoculated from frozen stocks maintained in T soy broth containing 10% glycerol and incubated overnight at 37° C. Colonies are suspended in sterile broth so that the turbidity matches the turbidity of a 0.5 McFarland standard. The inoculum is diluted 1:10 in sterile broth (Mueller Hinton or Trypticase soy) and 195 μl is dispensed per well of a 96-well plate. The compounds to be tested, dissolved in DMSO, are added to the wells in 5 μl volume at the following concentrations: 25, 12.5, 6.25, 3.125, 1.56 and 0.78 μg/ml in duplicate. Additional concentrations are tested if required. 5 μl of DMSO added to duplicate wells are the vehicle control. Serial dilutions of positive control compounds, vancomycin (E. faecalis and S. aureus) and tobramycin (E. coli and P. aerpginosa), are included in each run.
After 24 hours of incubation at 37° C., plates are read at OD600 on a Molecular Devices SpectraMax Plus Spectrophotometer. Average OD600 values are computed using SOFTmax Pro Software (Molecular Devices) and MIC values are determined by linear regression analysis using Prism version 3.02 (Graph Pad Software, San Diego). The MIC is defined as the concentration of compound required to produce an OD600 reading equivalent to 10% of the vehicle control reading.

[8] = Homo sapiens, MCF7, read-out: FAO Max

| SMILES | IC50 [1] [mg/L] | solubility [2] [mg/mL] | IC50 [3] [mg/L] | IC50 ([4]; OVCAR-3) [mg/L] | IC50 [5] [mg/L] | Emax at 0.098 µg/mL [6, 8] [%] | solubility ([2]; noted under the 14C column, unit inferred) [mg/mL] | Emax at 6.25 µg/mL ([6]; Homo sapiens, MCF7, at 6.25 μg/ml, read-out: FAO Max) [%] | FAO SC 150 ([6]; concentration leading to 150% of control acid soluble products, Neg = threshold not reached) | IC50 ([4]; OVCAR-3, unit given as ml) [mg/L] | EF/MH (MIC) ([7]; Mueller Hinton Broth) | EF/Tsoy (MIC) ([7]; Trypticase Soy Broth) | Emax at 1.56 µg/mL ([6]; Homo sapiens, MCF7, at 1.56 μg/ml, read-out: FAO Max) [%] |
| --- | --- | --- | --- | --- | --- | --- | --- | --- | --- | --- | --- | --- | --- |
| CCCCCCCCC1(C)SC(=O)C=C1OCC(=O)Nc1ccc(C(N)=O)cc1 (centres unmarked) | 10.6 (≈ 25.3 µM) | 0.08 (≈ 191 µM) | 10.2 (≈ 24.4 µM) | 21.5 (≈ 51.4 µM) | 12.3 (≈ 29.4 µM) |  |  |  |  |  |  |  |  |
| CCCCCCCCC1(C)SC(=O)C=C1OCC(=O)N1CCN(c2ccc(Cl)cc2)CC1 (centres unmarked) | 9.7 (≈ 20.2 µM) |  | 35.7 (≈ 74.5 µM) | 24.4 (≈ 50.9 µM) |  | 79 |  |  |  |  |  |  |  |
| CCCCCCCCC1(C)SC(=O)C=C1OCC(=O)Nc1ccc(C(=O)OC)cc1 (centres unmarked) | 6.3 (≈ 14.5 µM) |  | 6.5 (≈ 15 µM) |  |  |  | 0.08 (≈ 185 µM) | 126 | Neg | 12.7 (≈ 29.3 µM) |  |  |  |
| CCCCCCCCC1(C)SC(=O)C=C1OCC(=O)N1CCN(c2ccc(OC)cc2)CC1 (centres unmarked) | > 80 |  | > 80 | > 80 |  | 53 |  |  |  |  |  |  |  |
| CCCCCCCCC1(C)SC(=O)C=C1OCC(=O)Nc1ccc(C)cc1 (centres unmarked) | 12.8 (≈ 32.9 µM) |  | 6.8 (≈ 17.5 µM) | 8.1 (≈ 20.8 µM) |  |  |  |  |  |  | Neg | Neg |  |
| CCCCCCCCC1(C)SC(=O)C=C1OCC(=O)N1CCN(c2ccc(C(F)(F)F)cc2)CC1 (centres unmarked) | > 80 |  | 50.7 (≈ 98.9 µM) | > 80 |  |  |  |  |  |  |  |  | 118 |
| CCCCCCCCC1(C)SC(=O)C=C1OCC(=O)N1CCN(Cc2ccc(OC)cc2)CC1 (centres unmarked) | 69.7 (≈ 143 µM) |  | 13.6 (≈ 27.8 µM) | 79.8 (≈ 163 µM) |  | 83 |  |  |  |  |  |  |  |
